# PubChem BioAssay AID328 (DTP/NCI, 2004)
# Several values for one entry are separate records, joined by “and”; a condition that tells them apart may be missing. Identical values can stand only once. Inconclusive results and toxic doses are left out.
# System: BDF1 mice, P388 leukemia ip, median survival T/C
# Test: NCI In Vivo Anticancer Drug Screen. Data for tumor model P388 Leukemia (intraperitoneal) in B6D2F1 (BDF1) mice
# Settings: endpoint: median survival time, higher = longer survival
# Method in brief: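 Reported as T/C, where T is the survival measurement in dosed animals and C the same measurement in vehicle controls.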
# [1] = dose: 100.0 mg/kg/injection, schedule: Q04DX003 (ip), vehicle: saline with Tween-80
# [2] = dose: 200.0 mg/kg/injection, schedule: Q04DX003 (ip), vehicle: saline with Tween-80
# [3] = dose: 200.0 mg/kg/injection, schedule: Q04DX003 (ip), vehicle: Klucel (hydroxypropylcellulose) (HPC)
# [4] = dose: 400.0 mg/kg/injection, schedule: Q04DX003 (ip), vehicle: Klucel (hydroxypropylcellulose) (HPC)
# [5] = dose: 100.0 mg/kg/injection, schedule: Q01DX009 (ip), vehicle: saline with Tween-80
# [6] = dose: 200.0 mg/kg/injection, schedule: Q01DX009 (ip), vehicle: saline with Tween-80
# [7] = dose: 50.0 mg/kg/injection, schedule: Q01DX009 (ip), vehicle: saline
smiles,measurement,setting,value
CC(C)NC(=O)c1ccccc1S(=O)c1ccccc1 (configuration not stated),T/C,"dose: 100.0 mg/kg/injection, schedule: Q01DX001 (ip), vehicle: saline with Tween-80",100 % of control
same,T/C,"dose: 200.0 mg/kg/injection, schedule: Q01DX001 (ip), vehicle: saline with Tween-80",101 % of control
same,T/C,"dose: 400.0 mg/kg/injection, schedule: Q01DX001 (ip), vehicle: saline with Tween-80",92 % of control
S=C(/N=C1\CCC\C1=C/c1ccccc1)/N=C1\CCC\C1=C/c1ccccc1,T/C,[1],100 % of control
same,T/C,[2],109 % of control
same,T/C,"dose: 400.0 mg/kg/injection, schedule: Q04DX003 (ip), vehicle: saline with Tween-80",115 % of control
CC(=O)OCCCc1ccccc1,T/C,"dose: 100.0 mg/kg/injection, schedule: Q01DX009 (ip), vehicle: Klucel (hydroxypropylcellulose) (HPC)",109 % of control
same,T/C,"dose: 100.0 mg/kg/injection, schedule: Q04DX003 (ip), vehicle: Klucel (hydroxypropylcellulose) (HPC)",110 % of control
same,T/C,"dose: 200.0 mg/kg/injection, schedule: Q01DX009 (ip), vehicle: Klucel (hydroxypropylcellulose) (HPC)",104 % of control
same,T/C,[3],100 % of control
same,T/C,"dose: 400.0 mg/kg/injection, schedule: Q01DX009 (ip), vehicle: Klucel (hydroxypropylcellulose) (HPC)",95 % of control
same,T/C,[4],110 % of control
Nc1nc(N)c2nc(CNc3ccc(C(=O)NC(CCC(=O)O)C(=O)O)cc3)cnc2n1 (configuration not stated),T/C,"dose: 0.03 mg/kg/injection, schedule: Q01DX010 (ip), vehicle: other",90 % of control and 104 % of control
same,T/C,"dose: 0.05 mg/kg/injection, schedule: Q01DX010 (ip), vehicle: other",109 % of control and 115 % of control
same,T/C,"dose: 0.1 mg/kg/injection, schedule: Q01DX010 (ip), vehicle: other",118 % of control
same,T/C,"dose: 0.2 mg/kg/injection, schedule: Q01DX010 (ip), vehicle: other",163 % of control and 175 % of control
O=C1c2ccccc2C(=O)N1CN1C(=O)c2ccccc2C1=O,T/C,"dose: 50.0 mg/kg/injection, schedule: Q04DX003 (ip), vehicle: saline with Tween-80",95 % of control
same,T/C,[1],90 % of control
same,T/C,[2],86 % of control
Clc1ccc(N=Cc2cccs2)cc1,T/C,"dose: 50.0 mg/kg/injection, schedule: Q01DX009 (ip), vehicle: saline with Tween-80",96 % of control
same,T/C,[5],102 % of control
same,T/C,[6],88 % of control
COC(=O)C1=C(C)NC2(C)SC1C(C)C2C(=O)OC (configuration not stated),T/C,[5],107 % of control
same,T/C,[6],98 % of control
CN(C)c1ncnc2c1ncn2C1OC(CO)C(N)C1O (configuration not stated),T/C,"dose: 14.0 mg/kg/injection, schedule: Q01DX009 (ip), vehicle: saline",95 % of control
same,T/C,"dose: 22.0 mg/kg/injection, schedule: Q01DX009 (ip), vehicle: saline",100 % of control
same,T/C,[7],150 % of control and 177 % of control
CC/C(=N\NS(=O)(=O)c1ccc(C)cc1)c1ccc(OC)cc1,T/C,[7],92 % of control
same,T/C,"dose: 100.0 mg/kg/injection, schedule: Q01DX009 (ip), vehicle: saline",104 % of control
same,T/C,"dose: 200.0 mg/kg/injection, schedule: Q01DX009 (ip), vehicle: saline",93 % of control
COc1c(OC)c(OC)c2c(c1OC)c(=O)c1ccccc1n2C,T/C,"dose: 50.0 mg/kg/injection, schedule: Q01DX010 (ip), vehicle: carboxymethylcellulose (CMC)",104 % of control
same,T/C,"dose: 100.0 mg/kg/injection, schedule: Q01DX010 (ip), vehicle: carboxymethylcellulose (CMC)",122 % of control
COC(=O)CCCc1cc(O)c2c(c1O)C(=O)c1ccccc1C2=O,T/C,"dose: 100.0 mg/kg/injection, schedule: Q01DX001 (ip), vehicle: saline sonified",100 % of control
same,T/C,"dose: 200.0 mg/kg/injection, schedule: Q01DX001 (ip), vehicle: saline sonified",100 % of control
same,T/C,"dose: 400.0 mg/kg/injection, schedule: Q01DX001 (ip), vehicle: saline sonified",95 % of control
Cc1ccc(C(=O)C2(c3ccc(C)cc3)OC(c3ccc(C)cc3)=C(c3ccc(C)cc3)S2)cc1 (configuration not stated),T/C,"dose: 50.0 mg/kg/injection, schedule: Q01DX009 (ip), vehicle: other",104 % of control
same,T/C,"dose: 100.0 mg/kg/injection, schedule: Q01DX009 (ip), vehicle: other",100 % of control
same,T/C,"dose: 200.0 mg/kg/injection, schedule: Q01DX009 (ip), vehicle: other",100 % of control
Nc1ccc2c(c1)OCO2,T/C,"dose: 100.0 mg/kg/injection, schedule: Q01DX009 (sc), vehicle: olive oil, sesame oil, peanut oil",104 % of control
same,T/C,"dose: 100.0 mg/kg/injection, schedule: Q04DX003 (sc), vehicle: olive oil, sesame oil, peanut oil",91 % of control
same,T/C,"dose: 200.0 mg/kg/injection, schedule: Q04DX003 (sc), vehicle: olive oil, sesame oil, peanut oil",95 % of control
same,T/C,"dose: 400.0 mg/kg/injection, schedule: Q04DX003 (sc), vehicle: olive oil, sesame oil, peanut oil",116 % of control
O=C(Nc1cccc(Cl)c1)c1cc(N=Nc2ccc([N+](=O)[O-])cc2Cl)ccc1O,T/C,"dose: 25.0 mg/kg/injection, schedule: Q01DX009 (ip), vehicle: Klucel (hydroxypropylcellulose) (HPC)",114 % of control
same,T/C,"dose: 50.0 mg/kg/injection, schedule: Q01DX009 (ip), vehicle: Klucel (hydroxypropylcellulose) (HPC)",114 % of control
same,T/C,"dose: 133.0 mg/kg/injection, schedule: Q04DX003 (ip), vehicle: Klucel (hydroxypropylcellulose) (HPC)",115 % of control
same,T/C,[3],161 % of control
same,T/C,[4],155 % of control
